Our source for the DC50 values is patent publication US12391686B2, “Compounds and uses thereof” (Foghorn Therapeutics Inc., priority 2019, dated 2025).

Like-named read-outs stand apart in the source and are kept apart here.

This assay has as its target T1, Nanoluciferase-BRD9 fusion protein (3×FLAG-NLuc-BRD9) in SYO-1 cells (Homo sapiens, UniProt Q9H8M2).
T1 construct: expressed in transfected cells; host or cells: SYO-1
T1 sequence (Q9H8M2 1-597): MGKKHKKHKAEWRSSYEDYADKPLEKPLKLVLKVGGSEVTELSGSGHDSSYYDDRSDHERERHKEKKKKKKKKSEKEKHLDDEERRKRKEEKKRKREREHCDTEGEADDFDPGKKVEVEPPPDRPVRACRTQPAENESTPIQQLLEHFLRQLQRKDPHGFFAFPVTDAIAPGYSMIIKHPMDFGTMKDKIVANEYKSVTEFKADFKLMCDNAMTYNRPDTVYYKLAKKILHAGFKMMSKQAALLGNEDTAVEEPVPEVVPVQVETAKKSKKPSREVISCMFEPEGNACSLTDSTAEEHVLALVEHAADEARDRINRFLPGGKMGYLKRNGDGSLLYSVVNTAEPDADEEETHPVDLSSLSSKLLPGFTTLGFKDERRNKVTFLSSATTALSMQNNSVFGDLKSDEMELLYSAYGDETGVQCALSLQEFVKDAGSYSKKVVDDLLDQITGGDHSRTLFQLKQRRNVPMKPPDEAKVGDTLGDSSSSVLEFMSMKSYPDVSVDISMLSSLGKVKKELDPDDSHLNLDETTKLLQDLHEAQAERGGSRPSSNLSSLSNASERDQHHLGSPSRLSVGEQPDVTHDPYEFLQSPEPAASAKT
The assay can be described thus: SYO1 BRD9 NanoLuc Degradation Assay. It is filed as cell-based. The conditions noted are these: SYO-1 cells expressing 3×FLAG-NLuc-BRD9, 6 hours incubation, 1 μM top dose, read-out: SYO1 BRD9-NanoLuc degradation IC50. The method in brief:
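Stable 3×FLAG-NLuc-BRD9 SYO-1 line, 8000 cells/well, dosed day 1 with 10-point 3-fold dilutions (1 μM final top, duplicates) for 6 h. NanoLuc bioluminescence read with Nano-Glo; % inhibition relative to DMSO (high) and 1 μM reference BRD9 degrader (low) controls.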

Turning to `COc1cc(-c2cn(C)c(=O)c3cnc(N(C)C)cc23)cc(OC)c1CN1CCC(N2CCN(c3ccc4c(c3)C(=O)N(C3CCC(=O)NC3=O)C4=O)CC2)CC1` (stereo not shown) [Compound D52], the DC50 (Table 6B) was under 10 nM. The same measure, in the same setting: with `COc1cc(-c2cn(C)c(=O)c3cnc(N(C)C)cc23)cc(OC)c1CN1CCN([C@H](C)COc2ccc3c(c2)C(=O)N(C2CCC(=O)NC2=O)C3=O)CC1` (stereo partly shown) [Compound D77] the figure was under 10 nM. With `[2H]C([2H])([2H])Oc1cc2c(-c3cc(OC)c(CN4CCN(CCC5CCN(c6ccc7c(c6)C(=O)N(C6CCC(=O)NC6=O)C7)CC5)CC4)c(OC)c3)cn(C)c(=O)c2cn1` (stereo not shown) [Compound D198], the DC50 (Table 6C) was under 10 nM.

In the case of `COc1cc(-c2cn(C)c(=O)c3cnc(C(C)(C)CO)cc23)cc(OC)c1CN1CCC(CN2CCC3(CC2)CC(Oc2ccc4c(c2)C(=O)N(C2CCC(=O)NC2=O)C4)C3)CC1` (stereo not shown) [Compound D190], the DC50 (Table 6C) was under 10 nM. In the case of `COc1cc(-c2cn(C)c(=O)c3cnc(N(C)C)cc23)cc(OC)c1CN1CC(Oc2ccn3c(=O)n(C4CCC(=O)NC4=O)nc3c2)C1` (stereo not shown) [Compound D138], the DC50 (Table 6B) was under 10 nM.

`COc1cc(-c2cn(C)c(=O)c3cnc(N(C)C)cc23)cc(OC)c1CN1CC2CN(C(=O)CCOCCOc3ccc4c(c3)C(=O)N(C3CCC(=O)NC3=O)C4=O)CCC21` (stereo not shown) [Compound D33]: the DC50 (Table 6B) is under 10 nM.

Consider `COc1cc(-c2cn(C)c(=O)c3cnc(N(C)C)cc23)cc(OC)c1CN1CCC(CCCN2CCN(C3CCC(=O)NC3=O)C(=O)C2)CC1` (stereo not shown) [Compound D117], for which the DC50 (Table 6B) lay in the range of 10 to 100 nM. For `COc1cc2c(-c3cc(OC)c(CN4CCN(c5ccc6c(c5)C(=O)N(C5CCC(=O)NC5=O)C6)CC4(C)C)c(OC)c3)cn(C)c(=O)c2cn1` (stereo not shown) [Compound D260], the DC50 (Table 6C) is under 10 nM. Regarding `COc1cc(-c2cn(C)c(=O)c3ccc(N4CCC4)cc23)cc(OC)c1CN1CCC(N2CCC(c3ccc4c(c3)CN(C3CCC(=O)NC3=O)C4=O)CC2)CC1` (stereo not shown) [Compound D183], where the note is “Table 6B”, the DC50 is at least 1000 nM. Take `COc1cc(-c2cn(C)c(=O)c3cnc(N(C)C)cc23)cc(OC)c1CN1CCN(C2(COc3ccc4c(c3)C(=O)N(C3CCC(=O)NC3=O)C4=O)CC2)CC1` (stereo not shown) [Compound D109]: the DC50 (Table 6B) was under 10 nM. As to `COc1cc(-c2cn(C)c(=O)c3cnc(N(C)C)cc23)cc(OC)c1CN1CCN(c2ccc3c(c2)C(=O)N(C2CCC(=O)NC2=O)C3)CC1(C)C` (stereo not shown) [Compound D255], where the note is “Table 6C”, the DC50 was under 10 nM. As for `COc1cc(-c2cn(C)c(=O)c3cnc(N(C)C)cc23)cc(OC)c1CN1CCN([C@@H](C)COc2ccc3c(c2)C(=O)N(C2CCC(=O)NC2=O)C3=O)CC1` (stereo partly shown) [Compound D76], the DC50 (Table 6B) was under 10 nM. In the case of `COc1cc(-c2cn(C)c(=O)c3cnc(C4CC4)cc23)cc(OC)c1CN1CCC(CCN2CCN(c3ccc4c(c3)C(=O)N(C3CCC(=O)NC3=O)C4)CC2)CC1` (stereo not shown) [Compound D305], the DC50 (Table 6C) is under 10 nM. Still for that read-out and setting: with `COc1cc(-c2cn(C)c(=O)c3cnc(N(C)C)cc23)cc(OC)c1CN1CC2(CCC(N3CCN(C4CCC(=O)NC4=O)C(=O)C3)CC2)C1` (stereo not shown) [Compound D252] the figure was 10 to 100 nM. As for `COc1cc2c(-c3cc(OC)c(CN4CCC(c5ccc6c(c5)C(=O)N(C5CCC(=O)NC5=O)C6)CC4)c(OC)c3)cn(C)c(=O)c2cn1` (stereo not shown) [Compound D288], the DC50 (Table 6C) is under 10 nM. On the same count and under the same terms, for `COc1cc(-c2cn(C)c(=O)c3cnc(N4CCC4)c(F)c23)cc(OC)c1CN1CC(CN2CCC3(CC2)CN(c2ccc4c(c2)C(=O)N(C2CCC(=O)NC2=O)C4)C3)C1` (stereo not shown) [Compound D221] the value was under 10 nM.

With `COc1cc(-c2cn(C)c(=O)c3cnc(N(C)C)cc23)cc(OC)c1CN1CCC(CN2CCC3(CC2)CN(c2ccc4c(c2)C(=O)N(C2CCC(=O)NC2=O)C4=O)C3)CC1` (stereo not shown) [Compound D125], where the note is “Table 6B”, the DC50 is under 10 nM.

As for `COc1cc(-c2cn(C)c(=O)c3cnc(C4CC4)cc23)cc(OC)c1CN1CCC2(CC1)CN(c1ccc3c(c1)C(=O)N(C1CCC(=O)NC1=O)C3=O)C2` (stereo not shown) [Compound D219], the DC50 (Table 6C) is under 10 nM. On the same count and under the same terms, with `COc1cc(-c2cn(C)c(=O)c3cnc(N4CC(F)(F)C4)cc23)cc(OC)c1CN1CCN(c2ccc3c(c2)C(=O)N(C2CCC(=O)NC2=O)C3)CC1(C)C` (stereo not shown) [Compound D278] the figure was under 10 nM; with `COc1cc(-c2cn(C)c(=O)c3cnc(N4CC(F)(F)C4)cc23)cc(OC)c1CN1CC(CN2CCC3(CC2)CN(c2ccc4c(c2)C(=O)N(C2CCC(=O)NC2=O)C4)C3)C1` (stereo not shown) [Compound D211], under 10 nM. In the case of `COc1cc(-c2cn(C)c(=O)c3cnc(N(C)C)cc23)cc(OC)c1CN1CCC(CN2CCC3(CC2)CC(Oc2ccc4c(c2)C(=O)N(C2CCC(=O)NC2=O)C4)C3)CC1` (stereo not shown) [Compound D107], the DC50 (Table 6B) is under 10 nM. Take `COc1cc(-c2cn(C)c(=O)c3cnc(C(C)(C)C)cc23)cc(OC)c1CN1CCC(CN2CCC3(CC2)CC(Oc2ccc4c(c2)C(=O)N(C2CCC(=O)NC2=O)C4)C3)CC1` (stereo not shown) [Compound D214]: the DC50 (Table 6C) is under 10 nM. Consider `COc1cc(-c2cn(C)c(=O)c3cnc(N4CCC4)cc23)cc(OC)c1CN1CCC2(CC1)CN(c1ccc3c(c1)C(=O)N(C1CCC(=O)NC1=O)C3)C2` (stereo not shown) [Compound D142], for which the DC50 (Table 6B) is under 10 nM. With `COc1cc(-c2cn(C)c(=O)c3cnc(N4CC(F)(F)C4)cc23)cc(OC)c1CN1CCN(CCC2CCN(c3ccc4c(c3)CN(C3CCC(=O)NC3=O)C4=O)CC2)CC1` (stereo not shown) [Compound D248], the DC50 (Table 6C) was under 10 nM. For `COc1cc(-c2cn(C)c(=O)c3cnc(N4CCC4)cc23)cc(OC)c1CN1CCC(CN2CCC3(CN(c4ccc5c(c4)C(=O)N(C4CCC(=O)NC4=O)C5)C3)C(F)(F)C2)CC1` (stereo not shown) [Compound D227], the DC50 (Table 6C) is under 10 nM. Still for that read-out and setting: with `COc1cc(-c2cn(C)c(=O)c3cnc(N4CCC4)nc23)cc(OC)c1CN1CCC(CN2CCC3(CC2)CC(Oc2ccc4c(c2)C(=O)N(C2CCC(=O)NC2=O)C4)C3)CC1` (stereo not shown) [Compound D286] the figure was under 10 nM; with `COc1cc(-c2cn(C)c(=O)c3cnc(N(C)C)cc23)cc(OC)c1CN1CCC2(CC1)CC(N1CCN(C3CCC(=O)NC3=O)C(=O)C1)C2` (stereo not shown) [Compound D251], at least 1000 nM. Consider `COc1cc(-c2cn(C)c(=O)c3cnc(N4CCOCC4)cc23)cc(OC)c1CN1CC(Oc2ccn3c(=O)n(C4CCC(=O)NC4=O)nc3c2)C1` (stereo not shown) [Compound D144], for which the DC50 (Table 6B) was under 10 nM. On to `COc1cc(-c2cn(C)c(=O)c3cnc(N4CCC4)cc23)cc(OC)c1CN(C)c1ccc2c(c1)CN(C1CCC(=O)NC1=O)C2=O` (stereo not shown) [Compound D202], for which the DC50 (Table 6C) was under 10 nM. For the compound `COc1cc(-c2cn(C)c(=O)c3cnc(N(C)C)cc23)cc(OC)c1CN1CCN(c2ccn3c(=O)n(C4CCC(=O)NC4=O)nc3c2)CC1` (stereo not shown) [Compound D154], the DC50 (Table 6B) is under 10 nM. As for `COc1cc(-c2cn(C)c(=O)c3cnc(N(C)C)cc23)cc(OC)c1CN1CCC(CCNC(=O)NCc2ccc3c(c2)C(=O)N(C2CCC(=O)NC2=O)C3=O)CC1` (stereo not shown) [Compound D74], under “Table 6B”, the DC50 fell in the range of 10 to 100 nM. Same read-out and setting: for `COc1cc(-c2cn(C)c(=O)c3cnc(N4CCC4)cc23)cc(OC)c1CN1CC(CN2CCC3(CC2)CN(c2ccc4c(c2)C(=O)N(C2CCC(=O)NC2=O)C4=O)C3)C1` (stereo not shown) [Compound D116] the value was under 10 nM. The same measure, in the same setting: for `COc1cc2c(-c3cc(OC)c(CN4CC(CN5CCC6(CC5)CN(c5ccc7c(c5)C(=O)N(C5CCC(=O)NC5=O)C7)C6)C4)c(OC)c3)cn(C)c(=O)c2cn1` (stereo not shown) [Compound D184] the value was under 10 nM; for `COc1cc(-c2cn(C)c(=O)c3cnc(N(C)C)cc23)cc(OC)c1CN1CC(C(=O)N2CC3(CCN(c4ccc5c(c4)C(=O)N(C4CCC(=O)NC4=O)C5=O)C3)C2)C1` (stereo not shown) [Compound D66], under 10 nM.

Consider `COc1cc(-c2cn(C)c(=O)c3cnc(S(N)(=O)=O)cc23)cc(OC)c1CN1CCC(CN2CCC3(CC2)CC(Oc2ccc4c(c2)C(=O)N(C2CCC(=O)NC2=O)C4)C3)CC1` (stereo not shown) [Compound D188], for which, where the note is “Table 6C”, the DC50 was under 10 nM. In the case of `COc1cc(-c2cn(C)c(=O)c3cnc(C4CC4)cc23)cc(OC)c1CN1CCC(C(N2CCC3(CC2)CC(Oc2ccc4c(c2)C(=O)N(C2CCC(=O)NC2=O)C4=O)C3)C(F)(F)F)CC1` (stereo not shown) [Compound D195], the DC50 (Table 6C) was under 10 nM. Same read-out and setting: with `COc1cc2c(-c3cc(OC)c(CN4CCC(CN5CCC6(CC5)CN(c5ccc7c(c5)C(=O)N(C5CCC(=O)NC5=O)C7)C6)CC4)c(OC)c3)cn(C)c(=O)c2cn1` (stereo not shown) [Compound D289] the figure was under 10 nM. With `COc1cc(-c2cn(C)c(=O)c3cnc(N(C)C)cc23)cc(OC)c1CN1CC(S(=O)(=O)NCCOCCOCCNc2cccc3c2C(=O)N(C2CCC(=O)NC2=O)C3=O)C1` (stereo not shown) [Compound D37], where the note is “Table 6B”, the DC50 is under 10 nM. Consider `COc1cc(-c2cn(C)c(=O)c3cnc(N(C)C)cc23)cc(OC)c1CN1CCC(CCN2CCN(c3ccc4c(c3)C(=O)N(C3CCC(=O)N(COC(=O)OC(C)C)C3=O)C4=O)CC2)CC1` (stereo not shown) [Compound D85], for which, where the note is “Table 6B”, the DC50 is under 10 nM. Turning to `[2H]C([2H])([2H])N(c1cc2c(-c3cc(OC)c(CN4CCN(CCC5CCN(c6ccc7c(c6)C(=O)N(C6CCC(=O)NC6=O)C7)CC5)CC4)c(OC)c3)cn(C)c(=O)c2cn1)C([2H])([2H])[2H]` (stereo not shown) [Compound D197], the DC50 (Table 6C) was under 10 nM.
